Test results taken from patent publication US10975081B2, “Substituted fused pyrazole compounds and their use as LRRK2 inhibitors” (GlaxoSmithKline Intellectual Property Development Limited, priority 2015, dated 2021).

Columns and labels:
[1] = target: Full length G2019 human LRRK2 (Homo sapiens (Human), UniProt Q5S007); assay: Full length G2019 human LRRK2 inhibition mass spectrometry assay; format: biochemical; conditions: Full length Flag-LRRK2, 25 uM LRRKtide, 2 mM ATP; for IC50: read-out: Full length G2019 human LRRK2 Inhibition mass spectrometry assay (pIC50) (converted)
Sequence of Full length G2019 human LRRK2 (Q5S007 other isoform, or with tags, fused parts or gaps): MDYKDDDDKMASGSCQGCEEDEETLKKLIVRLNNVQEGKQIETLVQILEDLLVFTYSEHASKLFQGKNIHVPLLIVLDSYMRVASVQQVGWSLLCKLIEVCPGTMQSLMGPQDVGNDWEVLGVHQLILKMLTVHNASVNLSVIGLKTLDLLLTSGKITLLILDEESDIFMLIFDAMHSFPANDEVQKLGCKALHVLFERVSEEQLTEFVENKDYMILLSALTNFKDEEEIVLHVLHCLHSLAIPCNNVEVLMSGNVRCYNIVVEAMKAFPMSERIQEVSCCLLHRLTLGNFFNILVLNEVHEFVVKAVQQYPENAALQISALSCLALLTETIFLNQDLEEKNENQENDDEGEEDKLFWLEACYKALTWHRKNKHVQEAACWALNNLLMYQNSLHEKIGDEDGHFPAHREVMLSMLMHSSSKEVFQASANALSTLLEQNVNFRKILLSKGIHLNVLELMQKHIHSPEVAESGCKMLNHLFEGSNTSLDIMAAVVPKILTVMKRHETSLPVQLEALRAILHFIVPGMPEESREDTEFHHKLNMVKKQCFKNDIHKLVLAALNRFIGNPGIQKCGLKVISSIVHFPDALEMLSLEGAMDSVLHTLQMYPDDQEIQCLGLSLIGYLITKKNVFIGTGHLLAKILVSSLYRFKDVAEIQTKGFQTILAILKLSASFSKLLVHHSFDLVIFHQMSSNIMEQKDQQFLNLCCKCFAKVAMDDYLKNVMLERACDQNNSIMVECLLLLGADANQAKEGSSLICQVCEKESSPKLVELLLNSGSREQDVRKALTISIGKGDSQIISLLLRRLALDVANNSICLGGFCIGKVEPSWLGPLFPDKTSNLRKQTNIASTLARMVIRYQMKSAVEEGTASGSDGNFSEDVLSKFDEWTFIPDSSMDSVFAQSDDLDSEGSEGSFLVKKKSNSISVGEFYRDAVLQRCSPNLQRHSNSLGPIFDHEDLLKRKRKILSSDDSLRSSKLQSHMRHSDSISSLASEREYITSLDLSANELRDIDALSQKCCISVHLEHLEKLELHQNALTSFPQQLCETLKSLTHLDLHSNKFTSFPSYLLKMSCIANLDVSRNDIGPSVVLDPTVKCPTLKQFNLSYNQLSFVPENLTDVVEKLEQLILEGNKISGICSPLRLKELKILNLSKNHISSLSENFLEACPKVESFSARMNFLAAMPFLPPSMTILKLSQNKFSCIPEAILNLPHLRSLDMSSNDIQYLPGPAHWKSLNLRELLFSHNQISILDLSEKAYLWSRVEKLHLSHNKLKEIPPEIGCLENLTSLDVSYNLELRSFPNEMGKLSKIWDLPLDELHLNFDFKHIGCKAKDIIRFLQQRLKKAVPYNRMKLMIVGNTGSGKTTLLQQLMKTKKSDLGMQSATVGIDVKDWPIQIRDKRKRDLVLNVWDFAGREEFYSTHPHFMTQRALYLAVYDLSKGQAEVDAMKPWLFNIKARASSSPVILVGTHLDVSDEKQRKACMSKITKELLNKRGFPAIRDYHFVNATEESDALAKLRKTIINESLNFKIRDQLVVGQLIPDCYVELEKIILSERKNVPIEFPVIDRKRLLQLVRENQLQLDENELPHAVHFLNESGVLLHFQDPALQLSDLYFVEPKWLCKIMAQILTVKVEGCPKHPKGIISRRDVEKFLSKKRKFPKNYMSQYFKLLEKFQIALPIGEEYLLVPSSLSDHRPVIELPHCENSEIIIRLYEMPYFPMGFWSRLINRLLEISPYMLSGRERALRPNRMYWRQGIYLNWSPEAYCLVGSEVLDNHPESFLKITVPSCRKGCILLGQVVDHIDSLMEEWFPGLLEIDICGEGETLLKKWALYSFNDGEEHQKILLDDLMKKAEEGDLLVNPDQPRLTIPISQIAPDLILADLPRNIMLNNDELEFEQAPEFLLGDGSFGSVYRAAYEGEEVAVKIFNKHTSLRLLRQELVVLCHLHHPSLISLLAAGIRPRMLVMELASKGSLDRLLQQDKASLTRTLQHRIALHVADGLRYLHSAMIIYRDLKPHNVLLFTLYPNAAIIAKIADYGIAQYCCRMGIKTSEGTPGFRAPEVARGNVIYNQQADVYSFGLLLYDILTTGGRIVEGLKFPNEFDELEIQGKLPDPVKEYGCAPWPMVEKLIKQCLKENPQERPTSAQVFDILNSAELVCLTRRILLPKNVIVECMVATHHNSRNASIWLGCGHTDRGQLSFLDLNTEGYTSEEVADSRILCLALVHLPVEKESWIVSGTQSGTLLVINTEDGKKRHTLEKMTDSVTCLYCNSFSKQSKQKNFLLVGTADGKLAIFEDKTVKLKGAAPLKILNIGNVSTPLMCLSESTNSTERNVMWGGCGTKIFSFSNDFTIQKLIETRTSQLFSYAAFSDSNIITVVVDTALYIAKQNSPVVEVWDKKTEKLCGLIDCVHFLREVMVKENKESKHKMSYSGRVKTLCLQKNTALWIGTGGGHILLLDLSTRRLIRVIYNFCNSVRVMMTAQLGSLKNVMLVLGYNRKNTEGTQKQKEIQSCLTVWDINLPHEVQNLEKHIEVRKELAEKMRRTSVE
Method: Mass Spectrometer Settings • LRRKtide Detection settings: Q1 mass 644.8 Da, Q3 mass 638.8, declustering potential 76 volts, collision energy 37 volts, CXP 34 volts • Phospho-LRRKtide Detection settings: Q1 mass 671.4 Da, Q3 mass 638.8, Declustering potential 76 volts, Collision energy 37 volts, CXP 34 volts. • A C4 cartridge was used and running buffers were: A (aqueous) 0.1% formic acid in water B (organic) 0.1% formic acid, 80% acetonitrile, 20% water • 5. Data was analysed using ActivityBase software (IDBS). A percent conversion from LRRKtide to Phospho-LRRKtide was calculated using the following formula: % conversion=(Phospho-LRRKtide product peak area/(Phospho-LRRKtide product peak area+LRRKtide substrate peak area))*100 2) Full Length G2019 Human LRRK2 Inhibition Mass Spectrometry Assay Insect Cell Cultures
Sf9 insect cells (Invitrogen Life Technologies, Carlsbad, Calif.) were maintained at 27° C. in SF 900 II SFM in 500-ml stationary flasks. The cells were maintained in exponential growth phase and subcultured twice per week. For larger volumes, cells were grown in 2-liter shaker flasks (Erlenmeyer, Corning) while being agitated with 120 rpm at 27° C. incubator shaker.
Human G2019 LRRK2 Plasmids Preparation
Primers Used for PCR Cloning:
• pHTBV-F: SEQ ID No: 1 • LRRK2 wt-F1: SEQ ID No: 2 • LRRK2 wt-R1: SEQ ID No: 3 • LRRK2 wt-F2: SEQ ID No: 4 • LRRK2 wt-R2: SEQ ID No: 5 • LRRK2 wt-F3: SEQ ID No: 6 • pHTBV-R: SEQ ID No: 7
The primers described above were used to amplify full length human LRRK2 (amino acids from 1-2527) with N terminal Flag tag from BioCat 116313 using high fidelity PCR polymerase KOD-Plus according to the manufacturer's instructions (KOD-211, TOYOBO). The PCR product was digested with BamHI and KpnI and ligated into BamHI and KpnI digested pHTBV1mcs3 (BioCat 127555). The sequence of the target fragment was confirmed by DNA sequencing. The construct BioCat141351 was generated by Novoprotein.
The G2019 full length Flag-LRRK2 coding sequence is SEQ ID No: 8.
The translated protein sequence for human G2019 full length LRRK2 flag tagged protein is SEQ ID No: 9.
Generation of the BacMam Virus
To generate the recombinant BacMam virus, SF9 cells were seeded in 6-well tissue culture dishes at 9×10^5 cells/well and allowed to attach for 20 min. Transfection procedure was followed using AESOP AP5911v2. Briefly, DH10Bac competent cells (10361-012, Invitrogen) were transformed by the genotypically normal human LRRK2 BacMam plasmid to generate the recombinant baculovirus DNA. The Sf9 insect cells were co-transfected with the mixture of recombinant baculovirus DNA and cellfectin (10362-100, Invitrogen). After 4 h of incubation at 27° C., the transfection media was replaced with Sf-900 III SFM medium containing 5% HI FBS (Ser. No. 10/100,147, Invitrogen). The cells were further incubated for 4 days. The infected cell culture medium containing the baculovirus (P0 virus stock) was collected and amplified by further infecting the Sf9 cells at multiplicity of infection (MOI) (pfu/cell) of 0.1.
Quantification of BacMam Viral Titre by BacPAKRapid Titer
The viral titre, measured as plaque forming unit (pfu)/ml was determined using BacPAK Papid Titer Kit (631406, Clontech) according to the manufacturer's protocol. The Sf9 cells seeded in 96-well plate with 3×10^5 cells per well were incubated with serial dilution of the viral stocks for 1 h at 27° C., 50 μl methyl cellulose overlay was added to each well followed by 43-47 h incubation. The cells were then fixed in 4% paraformaldehyde (PFA). After blocking the cells with diluted normal goat serum, Mouse anti-gp64 antibody was added to the cells. After 30 min incubation, the cells were washed with phosphate buffered saline containing 0.1% Triton-X100 (PBST) and incubated for another 30 min with goat anti-mouse antibody/HRP conjugate. This was followed by blue peroxidase substrate which detects the single infected cells and foci of infected cells by their dark blue color. […]

[2] = target: LRRK2 Ser935 phosphorylation in SH-SY5Y cells over-expressing recombinant full length LRRK2 (Homo sapiens (Human), UniProt Q5S007); assay: Recombinant cellular LRRK2 AlphaScreen assay; format: cell-based; conditions: 60 minutes, read-out: Recombinant cellular LRRK2 alphaScreen assay (pIC50) (converted)
Sequence of LRRK2 Ser935 phosphorylation in SH-SY5Y cells over-expressing recombinant full length LRRK2 (Q5S007 whole entry): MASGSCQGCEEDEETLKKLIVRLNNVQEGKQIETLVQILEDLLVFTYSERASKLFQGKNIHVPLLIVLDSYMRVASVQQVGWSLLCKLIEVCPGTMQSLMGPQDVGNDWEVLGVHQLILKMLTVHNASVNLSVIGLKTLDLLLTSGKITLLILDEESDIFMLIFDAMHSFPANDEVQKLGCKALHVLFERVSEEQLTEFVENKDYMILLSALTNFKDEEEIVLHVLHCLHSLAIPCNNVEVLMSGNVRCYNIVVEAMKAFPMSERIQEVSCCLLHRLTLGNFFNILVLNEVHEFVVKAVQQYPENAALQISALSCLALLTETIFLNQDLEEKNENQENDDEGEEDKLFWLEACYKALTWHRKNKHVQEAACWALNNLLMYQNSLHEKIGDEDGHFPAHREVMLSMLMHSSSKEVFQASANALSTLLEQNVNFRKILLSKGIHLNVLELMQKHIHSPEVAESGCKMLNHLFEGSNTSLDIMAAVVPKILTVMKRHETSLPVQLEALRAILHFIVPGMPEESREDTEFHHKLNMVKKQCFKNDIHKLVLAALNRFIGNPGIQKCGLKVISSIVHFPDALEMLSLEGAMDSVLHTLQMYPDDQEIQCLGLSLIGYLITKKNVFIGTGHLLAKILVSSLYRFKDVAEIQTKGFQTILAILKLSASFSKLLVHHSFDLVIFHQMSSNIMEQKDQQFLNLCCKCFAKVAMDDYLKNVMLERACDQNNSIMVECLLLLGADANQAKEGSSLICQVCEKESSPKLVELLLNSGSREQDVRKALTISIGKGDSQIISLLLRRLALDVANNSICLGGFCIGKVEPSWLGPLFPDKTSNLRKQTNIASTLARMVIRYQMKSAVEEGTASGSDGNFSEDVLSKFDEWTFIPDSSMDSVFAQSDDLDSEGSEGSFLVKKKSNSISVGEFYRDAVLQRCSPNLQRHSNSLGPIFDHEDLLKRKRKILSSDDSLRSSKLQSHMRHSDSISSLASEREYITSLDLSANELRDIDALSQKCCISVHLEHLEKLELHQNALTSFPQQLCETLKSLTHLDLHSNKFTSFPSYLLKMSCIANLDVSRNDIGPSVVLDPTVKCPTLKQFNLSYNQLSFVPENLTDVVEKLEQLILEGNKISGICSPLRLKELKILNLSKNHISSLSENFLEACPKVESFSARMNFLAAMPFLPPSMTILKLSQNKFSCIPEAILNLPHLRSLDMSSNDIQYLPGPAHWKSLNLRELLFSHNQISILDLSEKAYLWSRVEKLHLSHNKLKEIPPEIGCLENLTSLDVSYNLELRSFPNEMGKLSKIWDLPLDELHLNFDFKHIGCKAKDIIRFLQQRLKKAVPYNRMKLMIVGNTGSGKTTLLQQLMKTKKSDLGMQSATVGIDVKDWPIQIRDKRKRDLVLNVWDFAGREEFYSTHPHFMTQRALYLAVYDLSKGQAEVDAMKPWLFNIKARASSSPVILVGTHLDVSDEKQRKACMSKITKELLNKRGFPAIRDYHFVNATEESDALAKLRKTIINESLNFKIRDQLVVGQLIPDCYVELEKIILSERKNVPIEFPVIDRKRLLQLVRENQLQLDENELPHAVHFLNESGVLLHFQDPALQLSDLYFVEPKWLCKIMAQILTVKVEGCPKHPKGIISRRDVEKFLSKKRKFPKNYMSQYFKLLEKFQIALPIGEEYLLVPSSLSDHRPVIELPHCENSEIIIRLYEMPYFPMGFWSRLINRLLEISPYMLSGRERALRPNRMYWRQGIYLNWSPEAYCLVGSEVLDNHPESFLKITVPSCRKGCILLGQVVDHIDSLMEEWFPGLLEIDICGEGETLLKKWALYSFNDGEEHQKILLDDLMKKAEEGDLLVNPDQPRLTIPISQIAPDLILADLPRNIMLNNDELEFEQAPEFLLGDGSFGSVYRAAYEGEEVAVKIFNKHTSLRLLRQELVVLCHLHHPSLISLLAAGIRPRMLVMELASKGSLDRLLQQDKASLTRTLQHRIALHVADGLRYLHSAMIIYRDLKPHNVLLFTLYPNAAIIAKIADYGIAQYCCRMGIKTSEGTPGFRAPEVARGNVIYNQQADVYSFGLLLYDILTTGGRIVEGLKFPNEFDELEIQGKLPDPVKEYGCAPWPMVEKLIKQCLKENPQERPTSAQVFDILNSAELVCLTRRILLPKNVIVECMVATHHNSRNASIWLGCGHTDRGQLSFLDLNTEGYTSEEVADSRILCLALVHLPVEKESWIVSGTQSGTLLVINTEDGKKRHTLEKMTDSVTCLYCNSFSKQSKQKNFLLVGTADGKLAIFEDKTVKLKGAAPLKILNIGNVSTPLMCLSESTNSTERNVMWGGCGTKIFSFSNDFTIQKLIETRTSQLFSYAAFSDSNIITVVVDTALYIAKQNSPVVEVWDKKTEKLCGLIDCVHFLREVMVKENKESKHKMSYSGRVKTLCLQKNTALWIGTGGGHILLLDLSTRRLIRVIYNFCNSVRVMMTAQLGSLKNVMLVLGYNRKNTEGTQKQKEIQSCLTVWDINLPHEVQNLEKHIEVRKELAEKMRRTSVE
Text: To determine the activity of compounds against LRRK2 kinase activity in cells, the observed LRRK2 kinase-dependent modulation of LRRK2 Ser 935 phosphorylation (Dzamko et al., 2010, Biochem. J. 430: 405-413) was utilized to develop a quantitative 384 well plate-based immunoassay of LRRK2 Ser935 phosphorylation in the human neuroblastoma cell line SH-SY5Y, engineered to over-express recombinant full length LRRK2 protein.
A BacMam virus expressing full length recombinant LRRK2 was purchased from Invitrogen and amplified by inoculation of SF-9 cells at MOI 0.3 for 4-5 days in Sf-900 III SFM medium supplemented with 3% fetal bovine serum. Infected cell cultures were then centrifuged at 2000 g for 20 minutes, viral supernatant titer determined by anti-gp64 plaque assay and stored at 4° C.
Affinity-purified anti-phospho LRRK2 Ser935 sheep polyclonal antibody (Dzamko et al., 2010, Biochem. J. 430: 405-413) was biotinylated by standard methods (PerkinElmer). Anti-LRRK2 rabbit polyclonal antibody was purchased from Novus Biologicals. AlphaScreen Protein A IgG Kit (including acceptor and donor beads) was purchased from Perkin Elmer.
SH-SY5Y cells were grown in DMEM/F12 medium with 10% dialysed fetal bovine serum and harvested by treatment with 0.5% trypsin-EDTA for 5 minutes at 37° C. followed by centrifugation at 1000 rpm for 4 minutes. The cell pellet was resuspended in Opti-MEM reduced serum media (Invitrogen) at 200,000 cells/ml and mixed with the BacMam LRRK2 virus at M01=50. 50 μl cell solutions were then dispensed to each well of a 384-well plate and incubated at 37° C., 5% CO2 for 24 hours.
Serial dilutions of test compounds were prepared in Opti-MEM reduced serum media (Invitrogen) and 5.6 ul transferred from compound plate to cell assay plate to achieve a top final assay concentration of 10 uM. DMSO was used in certain wells as controls. Cells were incubated at 37° C., 5% CO2 for 60 minutes. The medium was then removed and cells lysed by addition of 20 ul cell lysis buffer (Cell Signaling Technology) and incubation at 4° C. for 20 minutes. 10 ul of antibody/acceptor bead mix [( 1/1000 biotinylated-pS935 LRRK2 antibody, 1/1000 total-LRRK2 antibody, 1/100 Acceptor beads in AlphaScreen detection buffer (25 mM Hepes (pH 7.4), 0.5% Triton X-100, 1 mg/ml Dextran 500 and 0.1% BSA)] was then added to each well and plates incubated for 2 hours at ambient temperature in the dark. 10 μl of donor beads solution (1/33.3 donor beads in AlphaScreen detection buffer) was then added to each well. Following incubation for a further 2 hours at ambient temperature in the dark, plates were read on an EnVision™ plate reader at emission 520-620 nm with excitation 680 nm. Dose response curve data was based on sigmoidal dose-response model.

SMILES	IC50 [1]	IC50 [2]	Full length G2019 human LRRK2 Inhibition mass spectrometry assay (pIC50) [1]
Cc1nc(N2CC(O)C2)cc(-n2ncc3cc(C)c(C4CCN(C5COC5)CC4F)cc32)n1 (single isomer, unassigned) [Example E42, (cis)-1-(6-(6-(3-Fluoro-1-(oxetan-3-yl)piperidin-4-yl)-5-methyl-1H-indazol-1-yl)-2-methylpyrimidin-4-yl)azetidin-3-ol]	≤ 10 µM	≤ 0.1 µM	
Cc1nc(-n2ncc3cc(C)c(C4CCN(C5COC5)CC4F)cc32)cc([C@H]2C[C@@H](O)C2)n1 (single isomer, unassigned) [Example E45, (cis)-(1s,3s)-3-(6-(6-(3-Fluoro-1-(oxetan-3-yl)piperidin-4-yl)-5-methyl-1H-indazol-1-yl)-2-methylpyrimidin-4-yl)cyclobutanol]	≤ 10 µM		
COc1nc(N2CCO[C@@H](CO)C2)cc(-n2ncc3cc(C)c(C4CCN(C5COC5)CC4F)cc32)n1 (single isomer, unassigned) [Example E170]	0.00794 µM	0.00501 µM	
COc1nc(N2CC(O)C2)cc(-n2ncc3cc(C)c(C4CN(C)CCO4)cc32)n1 (single isomer, unassigned) [Example E230, 1-(2-Methoxy-6-(5-methyl-6-(4-methylmorpholin-2-yl)-1H-indazol-1-yl)pyrimidin-4-yl)azetidin-3-ol]	0.251 µM	0.631 µM	
COc1nc(N2CC(C)(O)C2)cc(-n2ncc3cc(C)c(C4CCN(C5COC5)CC4)cc32)n1 [Example E80, 1-(2-Methoxy-6-(5-methyl-6-(1-(oxetan-3-yl)piperidin-4-yl)-1H-indazol-1-yl)pyrimidin-4-yl)-3-methylazetidin-3-ol]	≤ 10 µM	≤ 0.1 µM	
Cc1nc(N2CCO[C@H](CO)C2)cc(-n2ncc3cc(C)c(C4CCN(C5COC5)CC4)cc32)n1 [Example E183, (S)-(4-(2-Methyl-6-(5-methyl-6-(1-(oxetan-3-yl)piperidin-4-yl)-1H-indazol-1-yl)pyrimidin-4-yl)morpholin-2-yl)methanol]		0.0631 µM	7.9
Cc1nc(N2CCO[C@@H](CO)C2)cc(-n2ncc3cc(C)c(C4CCNCC4)cc32)n1 [Example E188, (R)-(4-(2-Methyl-6-(5-methyl-6-(piperidin-4-yl)-1H-indazol-1-yl)pyrimidin-4-yl)morpholin-2-yl)methanol]		0.0794 µM	7.6
COc1nc(N2CCOCC2)cc(-n2ncc3cc(C)c(C4CCNCC4)cc32)n1.Cl [Example E205, 4-(2-Methoxy-6-(5-methyl-6-(piperidin-4-yl)-1H-indazol-1-yl)pyrimidin-4-yl)morpholine]		0.0501 µM	7.7
Cc1nc(N2CCO[C@H](CO)C2)cc(-n2ncc3cc(Cl)c(C4CCN(C5COC5)CC4)cc32)n1 [Example E208, (S)-(4-(6-(5-Chloro-6-(1-(oxetan-3-yl)piperidin-4-yl)-1H-indazol-1-yl)-2-methylpyrimidin-4-yl)morpholin-2-yl)methanol]		0.0398 µM	7.7
Cc1nc(N2CCO[C@@H](CO)C2)cc(-n2ncc3cc(C)c(C4CCOCC4)cc32)n1 [Example E239, (R)-(4-(2-Methyl-6-(5-methyl-6-(tetrahydro-2H-pyran-4-yl)-1H-indazol-1-yl)pyrimidin-4-yl)morpholin-2-yl)methanol]		0.158 µM	7.9
